The assay deals with P388 leukemia ip, CD2F1 mice, survival T/C. Description: NCI In Vivo Anticancer Drug Screen. Data for tumor model P388 Leukemia (intraperitoneal) in CD2F1 (CDF1) mice. Conditions: endpoint: median survival time, higher = longer survival. Summed up: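 Mice carrying the transplanted tumor received test compound or vehicle. Survival was recorded in each group, and the value is the treated-group measurement divided by that of the vehicle-treated control group.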

The mark [1] stands for this setting: dose: 50.0 mg/kg/injection, schedule: Q01DX009 (ip), vehicle: saline with Tween-80.
Where [2] appears, read: dose: 100.0 mg/kg/injection, schedule: Q01DX009 (ip), vehicle: saline with Tween-80.
The mark [3] stands for this setting: dose: 200.0 mg/kg/injection, schedule: Q01DX009 (ip), vehicle: saline with Tween-80.
[4] abbreviates: dose: 100.0 mg/kg/injection, schedule: Q01DX001 (ip), vehicle: saline.
The mark [5] stands for this setting: dose: 200.0 mg/kg/injection, schedule: Q01DX001 (ip), vehicle: saline.
[6] abbreviates: dose: 25.0 mg/kg/injection, schedule: Q01DX009 (ip), vehicle: saline with Tween-80.
Setting [7] is: dose: 50.0 mg/kg/injection, schedule: Q01DX009 (ip), vehicle: saline.
Where [8] appears, read: dose: 100.0 mg/kg/injection, schedule: Q01DX009 (ip), vehicle: saline.
Setting [9] is: dose: 200.0 mg/kg/injection, schedule: Q01DX009 (ip), vehicle: saline.
Where [10] appears, read: dose: 50.0 mg/kg/injection, schedule: Q01DX009 (ip), vehicle: Klucel (hydroxypropylcellulose) (HPC).
Where [11] appears, read: dose: 100.0 mg/kg/injection, schedule: Q01DX009 (ip), vehicle: Klucel (hydroxypropylcellulose) (HPC).
Setting [12] is: dose: 200.0 mg/kg/injection, schedule: Q01DX009 (ip), vehicle: Klucel (hydroxypropylcellulose) (HPC).
Where [13] appears, read: dose: 50.0 mg/kg/injection, schedule: Q01DX005 (ip), vehicle: Klucel (hydroxypropylcellulose) (HPC).
The mark [14] stands for this setting: dose: 100.0 mg/kg/injection, schedule: Q01DX005 (ip), vehicle: Klucel (hydroxypropylcellulose) (HPC).
The mark [15] stands for this setting: dose: 200.0 mg/kg/injection, schedule: Q01DX005 (ip), vehicle: Klucel (hydroxypropylcellulose) (HPC).

The structures appear in SMILES notation. Where “and” joins values, the source holds several entries; their conditions need not be identical. Equal values may be shown once. Inconclusive results and toxic doses are left out.

On to `Cc1c2oc3c(C)c(N)cc(C(=O)NC4C(=O)NC(C(C)C)C(=O)N5CCCC5C(=O)N(C)CC(=O)N(C)C(C(C)C)C(=O)OC4C)c3nc-2c(C(=O)NC2C(=O)NC(C(C)C)C(=O)N3CCCC3C(=O)N(C)CC(=O)N(C)C(C(C)C)C(=O)OC2C)c(N)c1=O` (stereo not drawn), for which the T/C (dose: 0.01 mg/kg/injection, schedule: Q01DX009 (ip), vehicle: Klucel (hydroxypropylcellulose) (HPC)) is 102 % of control; the T/C (dose: 0.02 mg/kg/injection, schedule: Q01DX009 (ip), vehicle: Klucel (hydroxypropylcellulose) (HPC)) is 110 % of control; the T/C (dose: 0.04 mg/kg/injection, schedule: Q01DX009 (ip), vehicle: Klucel (hydroxypropylcellulose) (HPC)) is 115 % of control; the T/C (dose: 0.08 mg/kg/injection, schedule: Q01DX009 (ip), vehicle: Klucel (hydroxypropylcellulose) (HPC)) is 93 % of control; the T/C (dose: 0.3 mg/kg/injection, schedule: Q01DX009 (ip), vehicle: Klucel (hydroxypropylcellulose) (HPC)) was 190 % of control.

As for `O[O][Sn][c]1ccccc1`, the T/C was 100 % of control under setting [1], 100 % of control under setting [2] and 86 % of control under setting [3].

Turning to `CC(C)(C)N1CC(O)C1`, the T/C is 100 % of control (dose: 50.0 mg/kg/injection, schedule: Q01DX001 (ip), vehicle: saline); 98 % of control under setting [4]; 93 % of control under setting [5].

For the compound `O=C(OCC1OC(n2cnc3c(=S)nc[nH]c32)C(OC(=O)c2ccc(Cl)cc2)C1OC(=O)c1ccc(Cl)cc1)c1ccc(Cl)cc1` (stereo not drawn), the T/C is, setting by setting: under setting [1], 90 % of control; under setting [2], 90 % of control; under setting [3], 90 % of control; (dose: 400.0 mg/kg/injection, schedule: Q01DX009 (ip), vehicle: saline with Tween-80) 90 % of control.

In the case of `NC(CCC(=O)OCCn1c2ccccc2c2ccccc21)C(=O)O` (stereo not drawn), the T/C reads like this: under setting [6], 97 % of control; under setting [1], 93 % of control; under setting [2], 97 % of control.

Regarding `C#CCOCC1CO1` (stereo not drawn), the T/C under setting [7] is 110 % of control, the T/C under setting [8] is 110 % of control and the T/C under setting [9] is 115 % of control.

With `C1CSCCSCCSCCS1`, the T/C runs as follows: (dose: 100.0 mg/kg/injection, schedule: Q04DX003 (ip), vehicle: Klucel (hydroxypropylcellulose) (HPC)) 100 % of control; (dose: 200.0 mg/kg/injection, schedule: Q04DX003 (ip), vehicle: Klucel (hydroxypropylcellulose) (HPC)) 100 % of control; (dose: 400.0 mg/kg/injection, schedule: Q04DX003 (ip), vehicle: Klucel (hydroxypropylcellulose) (HPC)) 101 % of control.

As for `NNc1ccc(-n2ncc(C(N)=O)c2N)nn1`, the T/C was 104 % of control (dose: 50.0 mg/kg/injection, schedule: Q01DX005 (ip), vehicle: other) and 107 % of control (dose: 100.0 mg/kg/injection, schedule: Q01DX005 (ip), vehicle: other).

For `CC(C)c1cccc(C2(C)C(=O)c3ccccc3C2=O)c1`, the T/C is, setting by setting: (dose: 100.0 mg/kg/injection, schedule: Q04DX002 (ip), vehicle: saline) 99 % of control; (dose: 200.0 mg/kg/injection, schedule: Q04DX002 (ip), vehicle: saline) 102 % of control; (dose: 400.0 mg/kg/injection, schedule: Q04DX002 (ip), vehicle: saline) 100 % of control.

Consider `O=c1n(CC2CC3(Cl)C(Cl)=C(Cl)C2(Cl)C3(Cl)Cl)c(=O)n(CC2CC3(Cl)C(Cl)=C(Cl)C2(Cl)C3(Cl)Cl)c(=O)n1CC1CC2(Cl)C(Cl)=C(Cl)C1(Cl)C2(Cl)Cl` (stereo not drawn), for which the T/C was 101 % of control (dose: 12.5 mg/kg/injection, schedule: Q01DX009 (ip), vehicle: saline with Tween-80); 95 % of control under setting [6]; 87 % of control and 95 % of control under setting [1]; 97 % of control under setting [3].

For the compound `CC(=O)CC1(O)C(=O)Nc2ccc(Br)cc21` (stereo not drawn), the T/C was 100 % of control under setting [10], 108 % of control under setting [11] and 92 % of control under setting [12].

As to `CN(C)C(=S)c1cccc2ccccc12`, the T/C was 86 % of control under setting [1], 96 % of control under setting [2] and 114 % of control under setting [3].

For `CCOc1cc(/C=C2\SC(=O)N(CC)C2=O)ccc1O`, the T/C is, setting by setting: under setting [1], 108 % of control; under setting [2], 109 % of control; under setting [3], 90 % of control.

For `N#Cc1ncc(C[n+]2ccccc2)nc1N`, the T/C is, setting by setting: (dose: 10.0 mg/kg/injection, schedule: Q01DX009 (ip), vehicle: saline) 109 % of control; (dose: 20.0 mg/kg/injection, schedule: Q01DX009 (ip), vehicle: saline) 107 % of control; (dose: 40.0 mg/kg/injection, schedule: Q01DX009 (ip), vehicle: saline) 100 % of control.

As to `CCCN(CCC)C(=O)O[Si](C)(C)C(C)(C)C`, the T/C under setting [1] is 105 % of control, the T/C under setting [2] was 97 % of control and the T/C under setting [3] is 105 % of control.

Consider `C[Si](C)(c1ccc(Cl)cc1)c1ccc(Cl)cc1`, for which the T/C is 97 % of control under setting [7], 100 % of control under setting [8] and 99 % of control under setting [9].

In the case of `CN1CCN(c2ncc(S(=O)(=O)Cc3ccc(Cl)cc3)c(N)n2)CC1`, the T/C is, setting by setting: under setting [4], 95 % of control; under setting [5], 98 % of control; (dose: 400.0 mg/kg/injection, schedule: Q01DX001 (ip), vehicle: saline) 98 % of control.

With `CC(=O)Nc1[c-]cccc1.CC(=O)Nc1[c-]cccc1.CC(=O)O.CC(=O)O.[Pd].[Pd]`, the T/C runs as follows: (dose: 6.25 mg/kg/injection, schedule: Q01DX005 (ip), vehicle: saline with Tween-80) 94 % of control; (dose: 12.5 mg/kg/injection, schedule: Q01DX005 (ip), vehicle: saline with Tween-80) 95 % of control and 98 % of control; (dose: 25.0 mg/kg/injection, schedule: Q01DX005 (ip), vehicle: saline with Tween-80) 119 % of control and 98 % of control; (dose: 50.0 mg/kg/injection, schedule: Q01DX005 (ip), vehicle: saline with Tween-80) 100 % of control and 110 % of control.

Regarding `COC(=O)Nc1cn2ccc(C(Cl)=C(Cl)Cl)cc2n1`, the T/C was 107 % of control and 109 % of control under setting [10]; 117 % of control and 122 % of control under setting [11]; 116 % of control under setting [12].

Regarding `O=S1(=O)NC2CCC3NS(=O)(=O)NC4CCC(N1)N4S(=O)(=O)N23` (stereo not drawn), the T/C reads like this: (dose: 50.0 mg/kg/injection, schedule: Q01DX005 (ip), vehicle: distilled water + alcohol) 101 % of control; (dose: 100.0 mg/kg/injection, schedule: Q01DX005 (ip), vehicle: distilled water + alcohol) 109 % of control; (dose: 200.0 mg/kg/injection, schedule: Q01DX005 (ip), vehicle: distilled water + alcohol) 105 % of control.

With `Cc1c2c(c(C)c3c1C(=O)c1cc4c(cc1C3=O)OCO4)OC(C)(C)O2`, the T/C reads like this: (dose: 60.0 mg/kg/injection, schedule: Q01DX005 (ip), vehicle: saline with Tween-80) 89 % of control; (dose: 120.0 mg/kg/injection, schedule: Q01DX005 (ip), vehicle: saline with Tween-80) 94 % of control; (dose: 240.0 mg/kg/injection, schedule: Q01DX005 (ip), vehicle: saline with Tween-80) 100 % of control.

For `COc1ccc2ncc(COC(C)=O)c(COC(C)=O)c2c1`, the T/C by setting is: under setting [13], 99 % of control; under setting [14], 98 % of control; under setting [15], 102 % of control.

For `OCC1OC(n2ccc3c(NO)ncnc32)C(O)C1O` (stereo not drawn), the T/C (dose: 0.46 mg/kg/injection, schedule: Q01DX005 (ip), vehicle: Klucel (hydroxypropylcellulose) (HPC)) was 112 % of control.

Take `S=C1CC(N2CCCC2)=Nc2ccccc2N1`: the T/C was 100 % of control under setting [13], 90 % of control under setting [14] and 95 % of control under setting [15].

With `O=C1c2ccccc2C(=O)N1/N=[N+](\[O-])c1ccccc1`, the T/C is 105 % of control (dose: 25.0 mg/kg/injection, schedule: Q01DX005 (ip), vehicle: Klucel (hydroxypropylcellulose) (HPC)); 88 % of control under setting [13]; 106 % of control under setting [14]; 110 % of control under setting [15].

(Values after PubChem BioAssay AID330 (DTP/NCI, 2004).)
